# The supplement of paper PMC10307832
# Tests used:
# Assay in all cases: relative viability (nuclei count vs DMSO), 5 days (fraction); higher = more cells survive
# [1] = system: NCI-H2085
# In short: (§1)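 A single step with final 0.05% Triton X-100, 1% formaldehyde and 1 ug/ml Hoechst fixed the cells and stained nuclei 5 days after treatment. Lung cancer cell lines in 1536-well plates had been treated by pin tool the day after seeding with one drug alone or a fixed anchor-drug dose plus five library-drug doses (not always all listed) in √10 steps, and nuclei were counted on 4× images. Relative viability is the ratio of nuclei in treated wells to nuclei in vehicle wells, taken as the median of duplicate plates.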
# [2] = system: NCI-H2170
# In short: as §1
# [3] = system: ABC-1
# In short: as §1
# [4] = system: SK-MES-1
# In short: as §1
# [5] = system: HOP-62
# In short: as §1
# [6] = system: NCI-H727
# In short: as §1
# [7] = system: NCI-H1755
# In short: as §1
# [8] = system: NCI-H322M
# In short: as §1
# [9] = system: NCI-H2009
# In short: as §1
# [10] = system: UMC-11
# In short: as §1
# [11] = system: LCLC-97TM1
# In short: as §1
# [12] = system: RERF-LC-KJ
# In short: as §1
# [13] = system: NCI-H1437
# In short: as §1
# [14] = system: LOU-NH91
# In short: as §1
# [15] = system: NCI-H23
# In short: as §1
# [16] = system: NCI-H650
# In short: as §1
# [17] = system: NCI-H2405
# In short: as §1
# [18] = system: NCI-H2023
# In short: as §1
# [19] = system: NCI-H1355
# In short: as §1
# [20] = system: HCC-78
# In short: as §1
# [21] = system: NCI-H1792
# In short: as §1
smiles,measurement,setting,value
CCCCCCCCCCCC1=C(O)C(=O)C=C(O)C1=O [Embelin] + Cc1nc(NC(=O)N2CCC[C@H]2C(N)=O)sc1-c1ccnc(C(C)(C)C(F)(F)F)c1 [Alpelisib] (partner 2 µM),relative viability,[1]; first compound 0.08 µM,0.944
same,relative viability,[1]; first compound 0.8 µM,0.999
same,relative viability,[1]; first compound 2.53 µM,1.11
same,relative viability,[1]; first compound 8 µM,0.999
same,relative viability,[2]; first compound 0.08 µM,0.856
same,relative viability,[2]; first compound 0.8 µM,0.853
same,relative viability,[2]; first compound 2.53 µM,0.92
same,relative viability,[2]; first compound 8 µM,0.777
same,relative viability,[3]; first compound 0.08 µM,1.24
same,relative viability,[3]; first compound 0.8 µM,1.1
same,relative viability,[3]; first compound 2.53 µM,0.996
same,relative viability,[3]; first compound 8 µM,1.18
same,relative viability,[4]; first compound 0.08 µM,0.902
same,relative viability,[4]; first compound 0.8 µM,1.15
same,relative viability,[4]; first compound 2.53 µM,0.96
same,relative viability,[4]; first compound 8 µM,0.876
same,relative viability,[5]; first compound 0.08 µM,1.04
same,relative viability,[5]; first compound 0.8 µM,0.918
same,relative viability,[5]; first compound 2.53 µM,1.41
same,relative viability,[5]; first compound 8 µM,0.796
same,relative viability,[6]; first compound 0.08 µM,0.629
same,relative viability,[6]; first compound 0.8 µM,0.57
same,relative viability,[6]; first compound 2.53 µM,0.578
same,relative viability,[6]; first compound 8 µM,0.511
same,relative viability,[7]; first compound 0.08 µM,0.906
same,relative viability,[7]; first compound 0.8 µM,0.966
same,relative viability,[7]; first compound 2.53 µM,0.994
same,relative viability,[7]; first compound 8 µM,0.934
same,relative viability,[8]; first compound 0.08 µM,0.833
same,relative viability,[8]; first compound 0.8 µM,0.801
same,relative viability,[8]; first compound 2.53 µM,0.856
same,relative viability,[8]; first compound 8 µM,0.648
same,relative viability,[9]; first compound 0.08 µM,1.26
same,relative viability,[9]; first compound 0.8 µM,1.27
same,relative viability,[9]; first compound 2.53 µM,1.18
same,relative viability,[9]; first compound 8 µM,1.16
same,relative viability,[10]; first compound 0.08 µM,0.969
same,relative viability,[10]; first compound 0.8 µM,1.07
same,relative viability,[10]; first compound 2.53 µM,1.24
same,relative viability,[10]; first compound 8 µM,1.2
same,relative viability,[11]; first compound 0.8 µM,0.291
same,relative viability,[11]; first compound 2.53 µM,0.283
same,relative viability,[11]; first compound 8 µM,0.223
same,relative viability,[12]; first compound 0.08 µM,0.856
same,relative viability,[12]; first compound 0.8 µM,0.815
same,relative viability,[12]; first compound 2.53 µM,1.07
same,relative viability,[12]; first compound 8 µM,0.865
same,relative viability,[13]; first compound 0.08 µM,0.916
same,relative viability,[13]; first compound 0.8 µM,1.05
same,relative viability,[13]; first compound 2.53 µM,1.32
same,relative viability,[13]; first compound 8 µM,0.697
same,relative viability,[14]; first compound 0.08 µM,0.771
same,relative viability,[14]; first compound 0.8 µM,0.904
same,relative viability,[14]; first compound 2.53 µM,0.862
same,relative viability,[14]; first compound 8 µM,0.709
same,relative viability,[15]; first compound 0.08 µM,0.606
same,relative viability,[15]; first compound 0.8 µM,0.901
same,relative viability,[15]; first compound 2.53 µM,0.844
same,relative viability,[15]; first compound 8 µM,0.74
same,relative viability,[16]; first compound 0.08 µM,1.14
same,relative viability,[16]; first compound 0.8 µM,1.26
same,relative viability,[16]; first compound 2.53 µM,1.02
same,relative viability,[16]; first compound 8 µM,1.06
same,relative viability,[17]; first compound 0.08 µM,0.853
same,relative viability,[17]; first compound 0.8 µM,1.11
same,relative viability,[17]; first compound 2.53 µM,0.774
same,relative viability,[17]; first compound 8 µM,0.793
same,relative viability,[18]; first compound 0.08 µM,0.708
same,relative viability,[18]; first compound 0.8 µM,0.532
same,relative viability,[18]; first compound 2.53 µM,0.651
same,relative viability,[18]; first compound 8 µM,0.639
same,relative viability,[19]; first compound 0.08 µM,0.847
same,relative viability,[19]; first compound 0.8 µM,0.897
same,relative viability,[19]; first compound 2.53 µM,0.916
same,relative viability,[19]; first compound 8 µM,0.771
same,relative viability,[20]; first compound 0.08 µM,0.329
same,relative viability,[20]; first compound 0.8 µM,0.392
same,relative viability,[20]; first compound 2.53 µM,0.388
same,relative viability,[20]; first compound 8 µM,0.307
same,relative viability,[21]; first compound 0.08 µM,0.718
same,relative viability,[21]; first compound 0.8 µM,0.764
same,relative viability,[21]; first compound 2.53 µM,0.785
same,relative viability,[21]; first compound 8 µM,0.588
